In US20070071688A1, “Pharmaceutical compositions for transdermal administration of anti-inflammatory agents” (sanofi-aventis, priority 2000, published 2007):
In brackets after ≈: the same amount, converted by molar mass.

Assays:
[1] = Preliminary trials on solubility of ibuprofen in various solvents or components; assay type: physicochemical
Procedure: In the context of the present invention, preliminary trials were carried out directed essentially toward studying the solubility of ibuprofen in various solvents or components.

[2] = Saturation solubility of ibuprofen in components of the transdermal formulation (without matrix); assay type: physicochemical; settings: 30° C.
Procedure: Comparative tests were carried out in order to determine the saturation solubility of ibuprofen in various components of the transdermal formulation of the invention in the absence of matrix, namely water, 2-ethylhexyl 2-ethylhexanoate as transcutaneous absorption promoter, referred to hereinbelow as “promoter”, and isopropanol as nonaqueous solvent.
These various components were used alone or as homogeneous mixtures forming a clear solution, and the solubility measurements were performed at 30° C., after 24 hours of magnetic stirring and after filtration through a 0.22 μm filter.

solubility in water [1]: entirely water-insoluble
solubility in fatty acid ester/alcohol mixtures ([1]; 2-ethylhexyl 2-ethylhexanoate/ethanol or isopropanol mixtures): soluble
Ibuprofen saturating concentration ([2]; isopropanol 68.21 / promoter 31.79 % m/m, no water, 24 hours): 403 mg/mL
Ibuprofen saturating concentration ([2]; isopropanol 89.31 / promoter 10.69 % m/m, no water, 24 hours): 424 mg/mL
Ibuprofen saturating concentration ([2]; isopropanol 100% m/m, 24 hours magnetic stirring, 0.22 μm filtration): 441 mg/mL
Ibuprofen saturating concentration ([2]; promoter (2-ethylhexyl 2-ethylhexanoate) 100% m/m, 24 hours magnetic stirring, 0.22 μm filtration): 192 mg/mL
solubility thermodynamic at 24 h ([2]; thermodynamic from solid, water 100% m/m, 24 hours magnetic stirring, 0.22 μm filtration, read-out: Ibuprofen saturating concentration): 69 µg/mL (≈ 334 µM)
Ibuprofen saturating concentration ([2]; water 4.33 / isopropanol 85 / promoter 10.67 % m/m, 24 hours): 451 mg/mL
Ibuprofen saturating concentration ([2]; water 4.38 / isopropanol 68.16 / promoter 27.46 % m/m, 24 hours): 431 mg/mL
Ibuprofen saturating concentration ([2]; water 8.54 / isopropanol 68.23 / promoter 23.23 % m/m, 24 hours): 436 mg/mL
Ibuprofen saturating concentration ([2]; water 8.59 / isopropanol 80.7 / promoter 10.69 % m/m, 24 hours): 448 mg/mL
SMILES: CC(C)Cc1ccc(C(C)C(=O)O)cc1 (centres unmarked) [Ibuprofen]
